# US20080227638A1, “Use of abscisic acid to enhance growth control” (priority 2007, published 2008)
# How the values were obtained:
# Format in all cases: in vivo
# Kentucky bluegrass [1] = assay: Greenhouse Kentucky bluegrass height, ABA and uniconazole-P (Example 3); conditions: 10 ppm uniconazole-P
# Method: (§1) Greenhouse studies were conducted at the Research Farm of Valent BioSciences Corporation (Long Grove, Ill.). Grasses were grown in pots (18 cm in diameter and 18 cm in height) filled with Promix BX (available from Premier Horticulture Inc. Quakertown, Pa.). Grass was irrigated daily by an overhead irrigation system. The irrigation system was set up with multiple Tornado Mist Spray Heads (10 GPH at 40 PSI-Wetted diameter, NDS/Raindrip, Woodland Hills, Calif.). Spray heads were 1-meter apart from each other and 75 cm above grass canopy. Grass was cut with a scissor at 2.5 cm height and fertilizer (1 g/L all purpose fertilizer 20-20-20, available from The Scotts Company, Marysville, Ohio) was applied once per week.
# (§2) Chemical solutions were prepared with distilled water. Tween 20 (0.05% v/v) was used as an, adjuvant. Both trinexapac-ethyl (commercial product Primo Maxx, 11.3% active ingredient) and paclobutrazol (commercial product Trimmit 2SC, 22.3% active ingredient) were purchased from Syngenta Crop Protection Inc. (Greensboro, N.C.). Uniconazole-P (commercial product Sumagic, 0.55% active ingredient) was obtained from Valent U.S.A. Corporation (Walnut Creek, Calif.).
# (§3) When treated with paclobutrazol or uniconazole-P, turfgrass received irrigation within 24 hours after application to flush chemicals to the root zone. After treatment, turfgrasses were arranged in a randomized complete block experimental design. Turfgrass quality, turfgrass height or clip fresh weight was measured on assigned dates. Turfgrass quality was visually rated on a 0-9 scale based on the color, uniformity and density of the grass with 0 as the worst and 9 as the best. Turfgrass height was measured as the distance between canopy surface and soil. Clips were collected from each plot; all plots were cut to a uniform height.
# (§4) All experiments were randomized complete block experimental design. Data were analyzed by analysis of variance. Duncan's new multiple range tests at α=0.05 were used for mean separations.
# Kentucky bluegrass sod (unknown variety) was purchased from Deak sod farms, Inc. (Union Grove, Wis.). Grass was grown in the greenhouse in pots (n=6 pots per treatment) for establishment before treatment. […] Tween 20 (0.05% w/v) was included as an adjuvant. The turfgrass was cut every 7 days.
# creeping bentgrass = assay: Golf course green creeping bentgrass height, clip weight and quality, ABA and uniconazole-P (Example 5); conditions: 0.5 ppm uniconazole-P
# Method: Field studies were conducted at the nursery green or the practice green at Countryside golf course (Mundelein, Ill.). Both greens were sand based and growing Penncross creeping bentgrass. Grass was managed with typical Illinois golf course management practices.
# as §2, §3, §4
# Tween 20 (0.05% w/v) was included as an adjuvant.
# Bermudagrass = Bermudagrass clip weight, ABA and uniconazole-P (Example 7); conditions: 50 ppm uniconazole-P; 7 days after treatment
# Method: as §2, §3, §4
# Kentucky bluegrass [2] = assay: Greenhouse Kentucky bluegrass height and quality, ABA and paclobutrazol (Example 2)
# Method: as §1, §2, §3, §4
# Kentucky bluegrass sod (unknown variety) was purchased from Deak sod farms, Inc. (Union Grove, Wis.). Grass was grown in the greenhouse in pots (n=6 pots per treatment) for establishment before treatment. […] Turfgrass quality was evaluated at 7 days after treatment, and turfgrass height was measured at 7 and 28 days after treatment. Tween 20 (0.05% w/v) was included as an adjuvant. The turfgrass canopy was cut every 7 days during the experimental period.
Structure (SMILES),Turfgrass height (Kentucky bluegrass [1]; 7 days after treatment),Turfgrass height (Kentucky bluegrass [1]; 42 days after treatment),Clip weight (creeping bentgrass; 7 days after treatment),Turfgrass height (creeping bentgrass; 7 days after treatment),Clip weight (creeping bentgrass; 49 days after treatment),Turfgrass height (creeping bentgrass; 49 days after treatment),Effect on turfgrass quality (creeping bentgrass; throughout the study (not shown)),Clip weight (Bermudagrass),less clip weight compared to control (Bermudagrass),"Turfgrass height (Kentucky bluegrass [2]; 50 ppm paclobutrazol, 7 days after treatment)","Turfgrass height (Kentucky bluegrass [2]; 50 ppm paclobutrazol, 28 days after treatment)","Turfgrass height (Kentucky bluegrass [2]; 500 ppm paclobutrazol, 7 days after treatment)","Turfgrass height (Kentucky bluegrass [2]; 500 ppm paclobutrazol, 28 days after treatment)"
CC(C)(C)[C@H](O)/C(=C\c1ccc(Cl)cc1)n1cncn1 [uniconazole-P],12.3 cm,9.8 cm,2.4 g,6.0 cm,3.3 g,4.8 cm,No effect on turfgrass quality,1.4 g,14%,,,,
CC(C)(C)[C@@H](O)[C@@H](Cc1ccc(Cl)cc1)n1cncn1 [paclobutrazol],,,,,,,,,,12.3 cm,8.6 cm,12.1 cm,6.2 cm
